Values quoted from earlier work in PMC8472685, “Nanocrystalline Suspensions of Irbesartan Enhance Oral Bioavailability by Improving Drug Solubility and Leading Endocytosis Uptake into the Intestine” (Pharmaceutics, 2021).

Key:
[1] = for Aqueous solubility of crystalline form: forms A and B
[2] = design: method as in PMID 9438775
patients = test system: patients; design: method as in PMID 9438776; details: 300 mg dose

Row | SMILES | Aqueous solubility of crystalline form [1] [µg/mL] | BCS class ([1]; low aqueous solubility and high permeability) | Time of Cmax after oral administration [2] [h] | Oral bioavailability (BA) ([2]; in patients) | Decrease in BP from baseline (patients) [mmHg] | Higher BP in treated compared to nontreated patients (so in the source) (patients)
1 | CCCCC1=NC2(CCCC2)C(=O)N1Cc1ccc(-c2ccccc2-c2nnn[nH]2)cc1 [form A, irbesartan] | 11 | – | – | – | – | –
2 | CCCCC1=NC2(CCCC2)C(=O)N1Cc1ccc(-c2ccccc2-c2nnn[nH]2)cc1 [irbesartan] | – | BCS class II | 1.5 to 2 | 60–80% | 10 | approximately 70%
3 | CCCCC1=NC2(CCCC2)C(=O)N1Cc1ccc(-c2ccccc2-c2nnn[nH]2)cc1 [form B, irbesartan] | 0.6 | – | – | – | – | –
